From US4374144A, “β-Lactam compounds, their preparation and use” (Beecham Group Limited, priority 1978, dated 1983)
Read-outs that look alike come from different tables or passages of the source.

What was measured:
[1] = molecular target: T1, β-Lactamase from E. coli JT4 (Escherichia coli, UniProt P62593); assay: β-Lactamase inhibition, chromogenic cephalosporin substrate; format: biochemical; details: 5 min preincubation, pH 7.3, 37° C., read-out: I50 (converted)
T1 construct: β-Lactamase from; endogenous in cells; host or cells: E. coli JT4
Description: (§1) I50 values for certain compounds of the invention against various β-lactamases were determined as follows:
(§2) Enzyme (0.2 ml) and inhibitor solution (10 μl) were incubated at pH 7.3, 37° C. for 5 minutes. Substrate (0.2 ml), which was the chromogenic cephalosporin described by O'Callaghan, Morris, Kirby and Shingler, Antimicrobial Agents and Chemotherapy, vol. 1, no. […] After a further five minutes (37° C. at pH 7.3) the reaction was diluted with 1.6 ml of water and absorbance at 482 nm recorded instantly. […] Levels of inhibition were measured against a control reaction with no added inhibitor (10 μl buffer).

[2] = molecular target: β-Lactamase from Klebsiella aerogenes E70; assay: as above; format: biochemical; details: 5 min preincubation, pH 7.3, 37° C.
Description: as §1, §2

[3] = system: Shigella sonnei MB11967; assay: MIC, DST agar + 10% horse blood; format: cell-based
Description: (§3) The minimum inhibitory concentrations (MIC) of certain compounds of the invention were determined against a range of organisms.
(§4) of 0.001 ml of a 10^-2 dilution for Grampositive bacteria or a
(§5) 10^-4 dilution for Gramnegative bacteria).

[4] = system: Staph. aureus Oxford; assay: MIC, DST agar + 10% horse blood; format: cell-based; details: Staphylococcus aureus
Description: as §3, §4, §5

[5] = system: Citrobacter freundii E8; assay: MIC, DST agar + 10% horse blood; format: cell-based
Description: as §3, §4, §5

[6] = system: Proteus mirabilis C977; assay: MIC, DST agar + 10% horse blood; format: cell-based
Description: as §3, §4, §5

[7] = system: E. coli JT39; assay: MIC, DST agar + 10% horse blood; format: cell-based; details: Escherichia coli
Description: as §3, §4, §5

[8] = system: Streptococcus pyogenes CN10; assay: MIC, DST agar + 10% horse blood; format: cell-based
Description: as §3, §4, §5

[9] = system: Klebsiella aerogenes A; assay: MIC, DST agar + 10% horse blood; format: cell-based
Description: as §3, §4, §5

[10] = system: Bacillus subtilis A; assay: MIC, DST agar + 10% horse blood; format: cell-based
Description: as §3, §4, §5

[11] = system: Salmonella typhimurium CT10; assay: MIC, DST agar + 10% horse blood; format: cell-based; details: Salmonella enterica
Description: as §3, §4, §5

[12] = system: E. coli 0111; assay: MIC, DST agar + 10% horse blood; format: cell-based; details: Escherichia coli
Description: as §3, §4, §5

[13] = system: Staph. aureus Russell; assay: MIC, DST agar + 10% horse blood; format: cell-based; details: Staphylococcus aureus
Description: as §3, §4, §5

[14] = molecular target: T2, β-Lactamase from Staphylococcus aureus Russell (Staphylococcus aureus, UniProt P00807); assay: β-Lactamase inhibition, chromogenic cephalosporin substrate; format: biochemical; details: 5 min preincubation, pH 7.3, 37° C., read-out: I50 (converted)
T2 construct: β-Lactamase from; endogenous in cells; host or cells: Staphylococcus aureus Russell
Description: as §1
(§6) Enzyme (0.2 ml) and inhibitor solution (10 μl) were incubated at pH 7.3, 37° C. for 5 minutes. Substrate (0.2 ml), which was the chromogenic cephalosporin described by O'Callaghan, Morris, Kirby and Shingler, Antimicrobial Agents and Chemotherapy, vol. 1, no. 4, 283-288 (1972), was added to give a final concentration of 250 μg/ml. After a further five minutes (37° C. at pH 7.3) the reaction was diluted with 1.6 ml of water and absorbance at 482 nm recorded instantly. The enzyme level was sufficient to hydrolyse 75% of the substrate in 5 minutes. Levels of inhibition were measured against a control reaction with no added inhibitor (10 μl buffer). I50 values quoted are the concentrations required to give 50% inhibition of substrate hydrolysis under the conditions described and are the concentrations of inhibitor present with the enzyme prior to the addition of the substrate.

[15] = molecular target: T3, β-Lactamase from Enterobacter cloacae P99 (Enterobacter cloacae, UniProt P05364); assay: as above; format: biochemical; details: 5 min preincubation, pH 7.3, 37° C., read-out: I50 (converted)
T3 construct: β-Lactamase from; endogenous in cells; host or cells: Enterobacter cloacae P99
Description: as §1, §6

[16] = Shigella sonnei MB11967, inoculum 0.001 ml of 10^-4 dilution, read-out: MIC
[17] = E. coli JT39, inoculum 0.001 ml of 10^-4 dilution, read-out: MIC
[18] = E. coli 0111, inoculum 0.001 ml of 10^-4 dilution, read-out: MIC
[19] = Staph. aureus Oxford, inoculum 0.001 ml of 10^-2 dilution, read-out: MIC
[20] = Citrobacter freundii E8, inoculum 0.001 ml of 10^-4 dilution, read-out: MIC
[21] = Proteus mirabilis C977, inoculum 0.001 ml of 10^-4 dilution, read-out: MIC
[22] = Streptococcus pyogenes CN10, inoculum 0.001 ml of 10^-2 dilution, read-out: MIC
[23] = Klebsiella aerogenes A, inoculum 0.001 ml of 10^-4 dilution, read-out: MIC
[24] = Salmonella typhimurium CT10, inoculum 0.001 ml of 10^-4 dilution, read-out: MIC
[25] = Staph. aureus Russell, inoculum 0.001 ml of 10^-2 dilution, read-out: MIC

T2 sequence (P00807 25-281): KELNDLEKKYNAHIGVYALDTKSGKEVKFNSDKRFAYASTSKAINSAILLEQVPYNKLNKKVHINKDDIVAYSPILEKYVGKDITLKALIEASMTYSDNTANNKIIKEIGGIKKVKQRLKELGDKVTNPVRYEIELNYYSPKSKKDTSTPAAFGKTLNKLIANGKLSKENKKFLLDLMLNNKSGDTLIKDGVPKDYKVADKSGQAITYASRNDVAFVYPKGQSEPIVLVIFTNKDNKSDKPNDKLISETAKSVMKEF
T3 sequence (P05364 21-381): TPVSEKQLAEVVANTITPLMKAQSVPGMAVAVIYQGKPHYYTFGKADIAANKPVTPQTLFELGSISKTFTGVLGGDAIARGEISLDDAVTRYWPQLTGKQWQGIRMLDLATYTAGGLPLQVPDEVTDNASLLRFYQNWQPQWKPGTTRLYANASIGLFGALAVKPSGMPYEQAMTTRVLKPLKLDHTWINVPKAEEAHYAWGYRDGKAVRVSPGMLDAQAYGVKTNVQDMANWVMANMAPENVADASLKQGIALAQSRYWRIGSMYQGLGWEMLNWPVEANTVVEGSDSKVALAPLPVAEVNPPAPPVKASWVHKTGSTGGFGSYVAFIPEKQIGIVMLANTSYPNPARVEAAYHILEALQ
T1 sequence (P62593 24-286 limits assumed): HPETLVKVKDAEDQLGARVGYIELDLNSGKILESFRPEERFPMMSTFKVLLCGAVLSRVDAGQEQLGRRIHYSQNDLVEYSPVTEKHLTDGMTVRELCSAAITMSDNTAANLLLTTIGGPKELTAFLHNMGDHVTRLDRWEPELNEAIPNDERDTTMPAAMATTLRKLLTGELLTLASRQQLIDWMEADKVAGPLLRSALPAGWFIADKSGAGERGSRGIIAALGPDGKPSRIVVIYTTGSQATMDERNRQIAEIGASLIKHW

Row | Structure (SMILES) | MIC [4] | MIC ([5]; Citrobacter freundii, E8) | MIC ([6]; Proteus mirabilis, C977) | MIC ([8]; Streptococcus pyogenes, CN10) | MIC ([9]; Klebsiella aerogenes) | MIC ([10]; Bacillus subtilis) | MIC ([11]; TYPHIMURIUM) | MIC [13] | IC50 [14] | IC50 [15] | MIC [3, 16] | MIC [7, 17] | MIC [12, 18] | MIC [4, 19] | MIC [5, 20] | MIC [6, 21] | MIC [8, 22] | MIC [9, 23] | MIC [11, 24] | MIC [13, 25] | other results
1 | CC(=O)N/C=C\SC1=C(C(=O)[O-])N2C(=O)[C@H]([C@H](C)O)[C@H]2C1.[Na+] | 0.5 µg/mL | 2.5 µg/mL | 25 µg/mL | 0.5 µg/mL | 5 µg/mL | 5 µg/mL | 5 µg/mL | 0.5 µg/mL | ~8970 nM | 17.9 nM |  |  |  |  |  |  |  |  |  |  | IC50 [1]: 150 nM; I50 [2]: 0.1 µg/mL; MIC ([3]; Shigella sonnei, MB11967): 10 µg/mL; MIC ([7]; JT39): 10 µg/mL; MIC [12]; 0111: 5 µg/mL
2 | CC(=O)N/C=C\SC1=C(C(=O)[O-])N2C(=O)[C@@H]([C@H](C)O)[C@H]2C1.[Na+] [Example 5, Sodium (5R, 6R)-3-[(Z)-2-acetamidoethenylthio]-6-[(S)-1-hydroxyethyl]-7-oxo-1-azabicyclo[3.2.0]hept-2-ene-2-carboxylate] | 0.2 µg/mL | 1 µg/mL | 1 µg/mL | ≤ 0.02 µg/mL | 1 µg/mL | 0.1 µg/mL | 1 µg/mL | 0.5 µg/mL |  |  | 1 µg/mL | 10 µg/mL | 1 µg/mL |  |  |  |  |  |  |  | 
3 | CC(=O)N/C=C\SC1=C(C(=O)OCc2ccc([N+](=O)[O-])cc2)N2C(=O)[C@H]([C@H](C)O)[C@H]2C1 [Example 2, p-Nitrobenzyl (5R, 6S)-3-[(Z)-2-acetamidoethenylthio]-6-[(S)-1-hydroxyethyl]-7-oxo-1-azabicyclo[3.2.0]hept-2-ene-2-carboxylate] |  |  |  |  |  | 0.5 µg/mL |  |  |  |  | 2.5 µg/mL | > 50 µg/mL | 2.5 µg/mL | 0.5 µg/mL | 5 µg/mL | 5 µg/mL | ≤ 0.1 µg/mL | 2.5 µg/mL | 2.5 µg/mL | 1.2 µg/mL | 
4 | CC(=O)N/C=C\SC1=C(C(=O)O)N2C(=O)[C@@H]([C@H](C)OS(=O)(=O)O)[C@H]2C1 [Example 8, Disodium (5R, 6R)-3-[(Z)-2-acetamidoethenylthio]-6-[(S)-1-sulphatoethyl]-7-oxo-1-azabcicyclo[3.2.0]hept-2-ene-2-carboxylate] |  |  |  |  |  |  |  |  | 637 nM | 7.65 nM | 1.2 µg/mL | 2.5 µg/mL | 1.2 µg/mL | 1.2 µg/mL | 1.2 µg/mL | 1.2 µg/mL | 0.2 µg/mL | 0.5 µg/mL | 1.2 µg/mL | 1.2 µg/mL | MIC ([10]; Bacillus subtilis A, inoculum 0.001 ml of 10^-2 dilution, read-out: MIC): 1.2 µg/mL
